For data set [1], the system named is V. cholerae CO6. Kind of data set: Broth microdilution MIC/MBC. In kind it is cell-based, Vibrio cholerae. The conditions noted are these: for MBC/MIC / MBC / MIC: V. cholerae CO6; for MBC / MIC: Vibrio cholerae; for MBC: 99.9% reduction in CFU after 24 h; for MIC: 24 h at 37 °C. On the procedure:
(§1) A total of six bacterial strains were tested for their susceptibility to compounds and these strains were taken from our laboratory collection (kindly provided by Dr. T. Ramamurthy, NICED, Kolkata). Among the clinical strains of Vibrio cholerae used in this study, strains NB2 and SG24 and CO6 belonged to O1 and O139 serotypes, respectively. […]. The other strains used in this study were V. cholerae non-O1, non-O139 (strain PC2); […]. The American Type Culture Collection (ATCC) strain, Staphylococcus aureus ATCC 25923, was used for quality control. The bacterial strains were maintained on agar slant at 4 °C and subcultured on a fresh appropriate agar plates 24 h prior to any antibacterial test. The Mueller Hinton Agar (MHA) was used for the activation of bacteria. The Mueller Hinton Broth (MHB) and nutrient agar (Hi-Media) were used for the MIC and MBC determinations respectively.
(§2) Suspensions of bacteria were prepared in MHB from cells arrested during their logarithmic phase growth (4 h) on MHB at 37 °C. The turbidity of the microbial suspension was read spectrophotometrically at 600 nm and adjusted to an OD of 0.1 with MHB, which is equivalent to 1 × 10^8 CFU/mL. From this prepared solution, other dilutions were made with MHB to yield 1x10^6 CFU/mL.
(§3) MIC and MBC of compounds 1–3 were assessed using the broth microdilution method recommended by the National Committee for Clinical Laboratory Standards with slight modifications. Each test sample was dissolved in dimethylsulfoxide (DMSO) to give a stock solution. The 96-well round bottom sterile plates were prepared by dispensing 180 μL of the inoculated broth (1x10^6 CFU/mL) into each well. A 20 μL aliquot of the stock solution of compound was added. The concentrations of sample tested were 0.125, 0.25, 0.50, 1, 2, 4, 8, 16, 32, 64, 128, 256 and 512 μg/mL. […] Dilutions of tetracycline and ampicillin served as positive controls, while broth with 20 μL of DMSO was used as negative control. The ATCC strain Staphylococcus aureus ATCC 25923 was included for quality assurance purposes. Plates were covered and incubated for 24 h at 37 °C. After incubation, minimum inhibitory concentrations (MIC) were read visually; all wells were plated to nutrient agar (Hi-Media) and incubated. The minimal bactericidal concentration (MBC) was defined as a 99.9% reduction in CFU from the starting inoculums after 24 h incubation interval.
A general note: Dilution methods test growth across graded concentrations, often in twofold steps.

The subject of data set [2] is V. cholerae NB2. The data set is described as follows: Broth microdilution MIC/MBC. In kind it is cell-based, Vibrio cholerae. The conditions noted are these: for MIC / MBC / MBC/MIC: V. cholerae NB2; for MIC: 24 h at 37 °C; for MBC: 99.9% reduction in CFU after 24 h. On the procedure:
as §1, §2, §3

Data set [3] concerns V. cholerae PC2. Kind of data set: Broth microdilution MIC/MBC. In kind it is cell-based, Vibrio cholerae. To be noted: V. cholerae PC2; for MIC: 24 h at 37 °C; for MBC: 99.9% reduction in CFU after 24 h. On the procedure: as §1, §2, §3
The subject of data set [4] is V. cholerae SG24. Kind of data set: Broth microdilution MIC/MBC. The conditions noted are these: for MBC / MIC: Vibrio cholerae; for MBC: 99.9% reduction in CFU after 24 h; for MIC: 24 h at 37 °C. In kind it is cell-based, Vibrio cholerae. On the procedure: as §1, §2, §3
Data set [5] deals with S. flexneri SDINT. Kind of data set: Broth microdilution MIC/MBC. In kind it is cell-based, Shigella flexneri. To be noted: for MIC / MBC / MBC/MIC: S. flexneri SDINT; for MIC: 24 h at 37 °C; for MBC: 99.9% reduction in CFU after 24 h. As for the experimental part: as §1, §2, §3
For data set [6], the system named is S. aureus ATCC 25923. Kind of data set: Broth microdilution MIC/MBC. In kind it is cell-based, Staphylococcus aureus. The conditions noted are these: for MBC/MIC / MBC / MIC: S. aureus ATCC 25923; for MBC / MIC: Staphylococcus aureus, ATCC25923; for MBC: 99.9% reduction in CFU after 24 h; for MIC: 24 h at 37 °C. As for the experimental part:
as §1, §2, §3

The nature of data set [7]: MTT cytotoxicity assay. In kind it is cell-based, Human. The conditions noted are these: human, HeLa cells; MTT, 24 h, mean ± SD; read-out: Cytotoxicty (LC50) HeLa cells. As for the experimental part: (§4) HeLa (Human cervical cancer cell line, ATCC No. CCL-2) and Vero cells (African green monkey kidney cells, normal non-cancer cells, ATCC No. CCL-81), obtained from the American Type Culture Collection (ATCC) were used in this study. Cytotoxic activity was determined using the 3-(4,5-dimethylthiazol-2-yl)-2,5-diphenyltetrazolium bromide (MTT, Sigma, USA) assay reported by Mosmann for the HeLa and Vero cells. This cell viability assay is based on living cell‘s property to transform the MTT dye tetrazolium ring into a purple-colored formazan structure due to the action of mitochondrial and other dehydrogenases inside the cell. The color intensity yielded by the cell population is directly proportional to the number of viable cells, and one can quantify the absorbance measurements using mathematical parameters. Each test sample was dissolved in dimethylsulfoxide (DMSO) to give a stock solution. Compounds 1–3 were prepared from the stock solutions by serial dilution in RPMI 1640 to give a volume of 100 μL in each well of a microtiter plate (96-well). Each well was filled with 100 μL of cells at 2 × 10^5 cells/mL. The assay for each concentration of compound was performed in triplicates and the culture plates were kept at 37 °C with 5% (v/v) CO2 for 24 h. After removing the supernatant of each well and washing twice by PBS, 20 μL of MTT solution (5 mg/mL in PBS) and 100 μL of medium were then introduced. After 4 h of incubation, 100 μL of DMSO were added to each well to dissolve the formazan crystals and the absorbance values at 490 nm were measured with a microplate reader (Bio-RAD 680, USA). The relative cell viability (%) was expressed as a relative percentage of treated cells to the untreated control cells (TC/UC × 100). The rate of cell inhibition was calculated using the following formula: inhibition rate = [1- (ODtest/ODnegative control)] × 100%. The LC50 values were calculated as the concentration of test sample resulting in a 50% reduction of absorbance compared to untreated cells. Cells treated with 5-fluorouridine + RPMI 1640 served as positive control while cells left untreated + 1% (v/v) DMSO + RPMI 1640 were used as negative control.
In general terms: Formazan colour is commonly taken as a measure of viable cells.

Data set [8] has as its system HeLa cells. Kind of data set: MTT cytotoxicity assay. To be noted: SI = LC50 on Vero cells / LC50 on HeLa cells. In kind it is cell-based, Human. As for the experimental part:
as §4

The nature of data set [9]: MTT cytotoxicity assay. In kind it is cell-based. The conditions noted are these: African green monkey, Vero cells, normal non-cancer cells, mean ± SD, read-out: Cytotoxicty (LC50) Vero cells. On the procedure: as §4
The nature of data set [10]: Hemolytic assay. In kind it is cell-based. The conditions noted are these: male, 1% human red blood cell suspension, 512 μg/mL (highest concentration tested), 1% human red blood cells, PBS pH 7.4, 37 °C. As for the experimental part:
Whole blood (10 mL) from a healthy person was collected into a conical tube containing heparin as an anticoagulant. Erythrocytes were harvested by centrifugation at room temperature for 10 min at 1,000 × g and were washed three times in PBS solution. The top layer (plasma) and the next, milky layer (buffy coat with a layer of platelets on top of it) were then carefully aspirated and discarded. The cell pellet was resuspended in 10 mL of PBS solution and mixed by gentle aspiration with a Pasteur pipette. This cell suspension was used immediately.
For the normal human red blood cells, which were in suspension, the cytotoxicity was evaluated as previously described. Compounds 1–3, at concentrations ranging from 32 to 512 μg/mL, were incubated with an equal volume of 1% human red blood cells in phosphate buffered saline (10 mM PBS, pH 7.4) at 37 °C for 1 h. Tetracycline was tested simultaneously. Non-hemolytic and 100% hemolytic controls were the buffer alone and the buffer containing 1% Triton X-100, respectively. Cell lysis was monitored by measuring the release of hemoglobin at 595 nm with a spectrophotometer (Thermo Scientific, USA). Percent hemolysis was calculated as follows: [(A595 of sample treated with compound - A595 of sample treated with buffer)/(A595 of sample treated with Triton X-100 – A595 of sample treated with buffer)] x 100.

The test system of data set [11] is studied microorganisms (six bacterial strains). The data set is described as follows: Antibacterial spectrum over the six tested strains (broth microdilution). In kind it is cell-based. To be noted: out of 6 strains; concentrations up to 512 μg/mL. As for the experimental part: as §1, §3
Setting [12] is: Shigella flexneri, read-out: MIC.

≈ marks a conversion by molar mass, not a printed value. Like-named read-outs stand apart in the source and are kept apart here.

For `CC1(C)S[C@@H]2[C@H](NC(=O)[C@H](N)c3ccccc3)C(=O)N2[C@H]1C(=O)O` [Ampicillin, reference compound], the MBC/MIC in data set [1], in [4] and in data set [6] was 1 each time. Further, the MBC (commonly the smallest concentration meeting the test's criterion for killing) in data set [1] was 16 mg/L (≈ 45.8 µM); in data set [2] (Vibrio cholerae) it was greater than 512 mg/L; in [3] (Vibrio cholerae) it was greater than 512 mg/L; in data set [4], 16 mg/L (≈ 45.8 µM); in data set [5] (Shigella flexneri), greater than 512 mg/L; in data set [6] it was 16 mg/L (≈ 45.8 µM). For the same compound, the MIC (in general, the lowest concentration found to suppress growth) in [1] is 16 mg/L (≈ 45.8 µM); in data set [2], greater than 512 mg/L; in data set [2] (Vibrio cholerae, read-out: MIC) it was greater than 512 mg/L; in [3], greater than 512 mg/L; in data set [3] (Vibrio cholerae, read-out: MIC) it was greater than 512 mg/L; in data set [4] it was 16 mg/L (≈ 45.8 µM). The MIC in data set [5] was greater than 512 mg/L; in data set [5] (setting [12]), greater than 512 mg/L; in data set [6], 16 mg/L (≈ 45.8 µM).
`C=C1[C@@H](C)C2[C@H](Cc3ccccc3)NC(=O)[C@]23[C@H](O)/C=C/[C@](C)(OC)C[C@@H](C)C/C=C/[C@@H]3[C@@H]1O` (some centres unmarked) [Compound 1, 18-metoxycytochalasin J]: in [1] (SI = LC50 on Vero cells / MIC), the “Selectivity Index V. cholerae CO6” value was 0.18. Moreover, the MBC/MIC in [1], in data set [2], in data set [5] and in data set [6] was 1 throughout. The MBC in data set [1] is 512 mg/L (≈ 1100 µM); in [2] (Vibrio cholerae), 512 mg/L (≈ 1100 µM); in data set [3] (Vibrio cholerae), greater than 512 mg/L; in data set [4], greater than 512 mg/L; in data set [5] (Shigella flexneri), 128 mg/L (≈ 275 µM); in data set [6] it was 128 mg/L (≈ 275 µM). Further, the MIC was 512 mg/L (≈ 1100 µM) in data set [1]; 512 mg/L (≈ 1100 µM) in [2] (Vibrio cholerae, read-out: MIC); greater than 512 mg/L in [3] (Vibrio cholerae, read-out: MIC); greater than 512 mg/L in data set [4]; 128 mg/L (≈ 275 µM) in data set [5] (setting [12]); 128 mg/L (≈ 275 µM) in [6]. For the same compound, in data set [2] (SI = LC50 on Vero cells / MIC), the “Selectivity Index V. cholerae NB2” value stood at 0.18. Also, in data set [5] (SI = LC50 on Vero cells / MIC), the “Selectivity Index S. flexneri SDINT” value came to 0.72. Moreover, the “Selectivity Index S. aureus ATCC 25923” value in data set [6] (SI = LC50 on Vero cells / MIC) is given as 0.72. Further, the CC50 at 24 h in [7] was found to be 8.18 ± 0.92 mg/L (≈ 17.6 µM); in data set [9] it was 93 ± 2.54 mg/L (≈ 200 µM). Besides, the “Selectivity Index HeLa cells” value in [8] is 11.37. For the same compound, the hemolysis at 1 h, 512 μg/mL in data set [10] is less than 10%. In addition, the “share of the studied microorganisms on which inhibitory effects were noted” value in data set [11] turned out to be 66.66%.
Take `O=c1[nH]c(=O)n([C@@H]2O[C@H](CO)[C@@H](O)[C@H]2O)cc1F` [Compound 5-FU, 5-Fluorouridine, reference compound]: the values for the CC50 at 24 h in [7] and in [9] were 0.25 ± 0.05 mg/L (≈ 0.953 µM) and 4.63 ± 0.17 mg/L (≈ 17.7 µM), respectively. Moreover, in data set [8], the “Selectivity Index HeLa cells” value came to 18.52.
Consider `CN(C)[C@@H]1C(O)=C(C(N)=O)C(=O)[C@@]2(O)C(O)=C3C(=O)c4c(O)cccc4[C@@](C)(O)[C@H]3C[C@@H]12` [Tetracycline, reference compound], for which the MBC/MIC is given as 4 in data set [1]; 4 in data set [2]; 2 in data set [3]; 2 in data set [4]; 2 in data set [5]; 2 in [6]. The MBC in data set [1] stood at 8 mg/L (≈ 18 µM); in data set [2] (Vibrio cholerae), 2 mg/L (≈ 4.5 µM); in data set [3] (Vibrio cholerae), 1 mg/L (≈ 2.25 µM); in data set [4], 1 mg/L (≈ 2.25 µM); in [5] (Shigella flexneri), 32 mg/L (≈ 72 µM); in data set [6], 32 mg/L (≈ 72 µM). In addition, the MIC stood at 2 mg/L (≈ 4.5 µM) in data set [1]; 0.5 mg/L (≈ 1.13 µM) in data set [2] (Vibrio cholerae, read-out: MIC); 0.5 mg/L (≈ 1.13 µM) in data set [3] (Vibrio cholerae, read-out: MIC); 0.5 mg/L (≈ 1.13 µM) in data set [4]; 16 mg/L (≈ 36 µM) in data set [5] (setting [12]); 16 mg/L (≈ 36 µM) in data set [6]. Further, the hemolysis at 1 h, 512 μg/mL in data set [10] was less than 10%.
